In patent publication US11998595B2, “Telomerase polypeptide vaccine for treating cancer” (Ultimovacs AS, priority 2010, dated 2024):

Legend:
T cells (patient PBMCs) = experiment: T-cell proliferation assay (3H-thymidine) of patient PBMC/T cells with hTERT peptides or transfected DC; type: cell-based, human; details: for response of clinical non-responders: GV1001-vaccinated; for immunological responses in clinical responders: patients responding / 7 clinical responders; for immunological responses in clinical non-responders: patients responding / 10 clinical non-responders; for proliferative T-cell response (detected or not): pancreas cancer patient vaccinated with DC/hTERT mRNA
Method: FIG. 1 is a bar graph summarising hTERT T-cell responses detected in pancreas cancer patient vaccinated with DC transfected with hTERT mRNA. In samples from various time points throughout a vaccination schedule, T-cell responses against 24 overlapping hTERT 15-mer peptides were detected. Proliferation in response to peptide-loaded PBMC was measured by ^3H-thymidine incorporation. A stimulation index of >2 is considered an immune response.
Peripheral blood mononuclear cells (PBMCs) were obtained prior to the four standard vaccinations, after 5 weeks and after 12 weeks. PBMCs were also obtained before each monthly booster vaccination. The PBMCs were isolated and frozen as previously described (Kyte et al, 2005). Thawed PBMCs were stimulated once in vitro with tDCs (not with mockDCs) and cultured and then tested in T cell proliferation assays (^3H Thymidine) as previously described (Kyte et al 2006). The T cells were tested in triplicates. Irradiated tDCs and mock-transfected DC controls (mockDCs) were used or PBMC with or without hTERT peptide as APCs. Negative controls with T cells only were included.
PBMCs from various time points were stimulated with an overlapping hTERT 15-mer peptide library or a 30-mer hTERT peptide, all from ProImmune and then tested in proliferation assays as above using irradiated PBMCs as APCs as described in (Bernhardt et al 2006).
T-cell responses to a hTERT peptide library (including the polypeptides from Table 1) were determined for T-cells from 5 patients in addition to the patients reported in Examples 1 and 2. The methods were the same as previously described in Example 1 or in Bernhardt et al 2006. In brief, PBMCs from various time points during vaccination were stimulated with the overlapping hTERT peptide library prior to testing for specific T-cell responses in proliferation assays.
The proliferative T-cell responses of each patient to a series of peptides were then determined as explained in Example 1. The results are tabulated in Table 5 and are shown graphically in FIG. 14 in which the peptide designations are referenced in Table 6 (the results for peptides 726 and GV1001 are shown only for comparison).
Four patients who were clinical non-responders following a lung cancer diagnosis and a GV1001 (SEQ ID NO. 10) peptide vaccination were studied. These patients were all stage IV lung cancer patients vaccinated with GV1001. […] The proliferative T-cell responses of each patient to a series of peptides were determined in the same manner as in Example 1, at one time point. The peak response of each patient during the study period to peptide GV1001 is also shown which confirms that each patient responded immunologically to GV1001 vaccination.
Six patients who were clinical non-responders following a melanoma cancer diagnosis and a GV1001 peptide (SEQ ID NO. 10) vaccination were studied. These patients were all stage IV melanoma patients and included in the same GV1001 vaccination trial as melanoma patients P7 and P8 who were long term survivors (see Example 6). […] Five of the patients also experienced progressive disease and one patient, designated Melanoma P3, experienced some stabilization of the disease but still had short survival. The proliferative T-cell responses of each patient to a series of peptides were determined in the same manner as in Example 1, at one time point. The peak response of each patient during the study period to peptide GV1001 is also shown which confirms that each patient responded immunologically to GV1001 vaccination.

[1] = system: T cells stimulated with peptide-loaded autologous EBV-LCL; experiment: Intracellular cytokine staining of peptide-stimulated T cells; type: cell-based, human
CD4+ T-cell clones = experiment: Peptide-specific T-cell clones from patients (HLA class II allele, peptide titration); type: cell-based, human
Description: A value above 2 is considered as a positive response.
T-cell clones specific for all of the peptides of 15- or 30-amino acids shown in Table 1 have also been obtained from patients. […] This is important in order to be able to induce strong immune response in vivo where peptide concentrations are lower.
In addition, the 15- and 30-mer peptides listed in Table 1 show reactivity in nearly all patients tested, which means they are promiscuous with respect to the HLA class II alleles on which they are presented and that they are applicable to nearly the whole population without any need for HLA-screening (see Table 2).

[2] = system: CD8+ T cells (patient PBMCs); experiment: Pentamer staining of hTERT-specific CD8+ T cells by flow cytometry; type: cell-based, human; details: for patients with CTL responses shown by pentamer analysis: patients of Examples 1 to 8; for peptide-specific CD8+ T lymphocytes detected by pentamer: HLA-B7+ lung cancer patient in complete remission after GV1001 vaccination, up to six years (FIG. 6)
pancreas cancer patient = experiment: Clinical course of pancreas cancer patient; type: in vivo, human
Method: The vaccine consisted of 5×10^6 autologous monocyte-derived dendritic cells loaded with hTERT mRNA. The patient received 4 weekly injections followed by monthly booster injections.
Adverse events were recorded and graded according to the NCI-common toxicity criteria, as previously reported (Kyte et al, 2006 Gene therapy). […] Objective tumour response was assessed by clinical examination and CT scans prior to start of vaccination and every 3 months during the vaccination. The tumour response was classified according to the Response Evaluation Criteria in Solid Tumors (RECIST) (Therasse P et al, 2000).

[3] = four stage IV lung cancer patients
[4] = patient Colon ca P1, GV1001-vaccinated, clinical responder
[5] = patient Lung ca P1, GV1001-vaccinated, clinical non-responder, one time point
[6] = patient Lung ca P2, GV1001-vaccinated, clinical non-responder, one time point
[7] = patient Lung ca P3, GV1001-vaccinated, clinical non-responder, one time point
[8] = patient Lung ca P4, GV1001-vaccinated, clinical non-responder, one time point
[9] = patient Lung ca P5, GV1001-vaccinated, clinical responder
[10] = patient Lung ca P6, DC/hTERT mRNA-vaccinated, clinical responder, high background
[11] = patient Melanoma P1, GV1001-vaccinated, clinical non-responder, one time point
[12] = patient Melanoma P2, GV1001-vaccinated, clinical non-responder, one time point
[13] = patient Melanoma P3, GV1001-vaccinated, clinical non-responder, one time point
[14] = patient Melanoma P4, GV1001-vaccinated, clinical non-responder, one time point
[15] = patient Melanoma P5, GV1001-vaccinated, clinical non-responder, one time point
[16] = patient Melanoma P6, GV1001-vaccinated, clinical non-responder, one time point
[17] = patient Melanoma P7, GV1001-vaccinated, clinical responder
[18] = patient Melanoma P8, GV1001-vaccinated, clinical responder
[19] = patient Melanoma P9, non-vaccinated, spontaneous response
[20] = patient Pancreas ca P1, DC/hTERT mRNA-vaccinated, clinical responder, high background
[21] = GV1001 vaccinated lung cancer patient
[22] = HLA class II allele DR*04, 3 patients, malignant melanoma

Compound | response of clinical non-responders (T cells (patient PBMCs); [3]) | proliferative T-cell response (SI) (T cells (patient PBMCs); [4]) | proliferative T-cell response (SI) (T cells (patient PBMCs); [5]) | proliferative T-cell response (SI) (T cells (patient PBMCs); [6]) | proliferative T-cell response (SI) (T cells (patient PBMCs); [7]) | proliferative T-cell response (SI) (T cells (patient PBMCs); [8]) | proliferative T-cell response (SI) (T cells (patient PBMCs); [9]) | proliferative T-cell response (SI) (T cells (patient PBMCs); [10]) | proliferative T-cell response (SI) (T cells (patient PBMCs); [11]) | proliferative T-cell response (SI) (T cells (patient PBMCs); [12]) | proliferative T-cell response (SI) (T cells (patient PBMCs); [13]) | proliferative T-cell response (SI) (T cells (patient PBMCs); [14]) | proliferative T-cell response (SI) (T cells (patient PBMCs); [15]) | proliferative T-cell response (SI) (T cells (patient PBMCs); [16]) | proliferative T-cell response (SI) (T cells (patient PBMCs); [17]) | proliferative T-cell response (SI) (T cells (patient PBMCs); [18]) | proliferative T-cell response (SI) (T cells (patient PBMCs); [19]) | proliferative T-cell response (SI) (T cells (patient PBMCs); [20]) | immunological responses in clinical responders (T cells (patient PBMCs)) | response of clinical non-responders (T cells (patient PBMCs); six stage IV melanoma patients) | other results
RTFVLRVRAQDPPPE (listed as Homo sapiens) [SEQ ID NO. 7] | very low or no response | 20.6 | 1.3 | 1 | 1.2 | 0.4 | 1.1 | 0.8 | 0.9 | 1 | 0.7 | 1 | 1.2 | 4.8 | 4.9 | 2.8 | 5.7 | 2.5 | 5/7 | very low or no response | immunological responses in clinical non-responders (T cells (patient PBMCs)): 1/10
ALFSVLNYERARRPGLLGASVLGLDDIHRA [SEQ ID NO. 1] | very low or no response | 27.2 | 1 | 1.1 | 0.9 | 1.5 | 44.5 | 2.5 | 1.6 | 5.3 | 0.3 | 1 | 1.9 | 1.8 | 44.5 | 5.7 | 6.9 | 17.1 | 7/7 | very low or no response | CD8+ T cell population after stimulation with peptide-loaded versus non-peptide loaded targets ([1]; pancreas cancer patient (data not shown)): no difference in the CD8+ T cell population; CD4+ T cells secreting IFN-γ, IL-4 and TNF-α ([1]; pancreas cancer patient, one round of in vitro stimulation, autologous EBV-transformed B-cells loaded with same peptide): small population of multifunctional CD4+ T cells; T-cell clones derived from the culture with the peptide that were specific (CD4+ T-cell clones; [21]): 75%; Specific clones (CD4+ T-cell clones; HLA class II allele DR*07, specificity printed as 'Part of 660-689', 1 patient, colon cancer, Schroers et al, 2003): 3; Specific clones (CD4+ T-cell clones; HLA class II allele DR*14, 2 patients, colon cancer, lung cancer): 6 clones; T-cell response (T cells (patient PBMCs); [21]): very strong responses; reactivity in cancer patients tested (T cells (patient PBMCs); cancer patients, mostly vaccinated): reactivity in nearly all the cancer patients tested; T-cell response compared with the vaccine peptide GV1001 (T cells (patient PBMCs); one patient vaccinated with GV1001, certain time points (FIG. 3)): even stronger than to the vaccine peptide itself; proliferative T-cell response (detected or not) (T cells (patient PBMCs)): Proliferative T-cell responses were detected; immunological responses in clinical non-responders (T cells (patient PBMCs)): 1/10; patients with CTL responses shown by pentamer analysis [2]: Several
SVLNYERARRPGLLG (listed as Homo sapiens) [SEQ ID NO. 2] | – | – | – | – | – | – | – | – | – | – | – | – | – | – | – | – | – | – | – | – | Specific clones (CD4+ T-cell clones; HLA class II allele DR*01, 2 patients, malignant melanoma): T-cell lines; Specific clones (CD4+ T-cell clones; [22]): 3; Specific clones (CD4+ T-cell clones; HLA class II allele DR*08, 2 patients, malignant melanoma and lung cancer): >85
RPALLTSRL (listed as Homo sapiens) [SEQ ID NO. 5] | – | – | – | – | – | – | – | – | – | – | – | – | – | – | – | – | – | – | – | – | peptide-specific CD8+ T lymphocytes detected by pentamer [2]: stable CD8+ T cell population
AERLTSRVKALFSVL (listed as Homo sapiens) [SEQ ID NO. 9] | very low or no response | 13.9 | 0.8 | 0.6 | 0.8 | 0.7 | 1.2 | 0.7 | 0.8 | 0.6 | 0.5 | 0.8 | 0.9 | 1.3 | 3.2 | 1 | 5.9 | 1 | 3/7 | very low or no response | immunological responses in clinical non-responders (T cells (patient PBMCs)): 0/10; patients with CTL responses shown by pentamer analysis [2]: 3
Nc1ccn([C@@H]2O[C@H](CO)[C@@H](O)C2(F)F)c(=O)n1 [gemcitabine] | – | – | – | – | – | – | – | – | – | – | – | – | – | – | – | – | – | – | – | – | adverse effects (pancreas cancer patient; after 5 months): suspended due to adverse effects; Clinical response (pancreas cancer patient; before DC vaccination): disease stabilization
PGLLGASVLGLDDIH (listed as Homo sapiens) [SEQ ID NO. 55] | – | – | – | – | – | – | – | – | – | – | – | – | – | – | – | – | – | – | – | – | proliferative T-cell response (detected or not) (T cells (patient PBMCs)): recognized by T cells
RPGLLGASVL (listed as Homo sapiens) [SEQ ID NO. 25] | – | – | – | – | – | – | – | – | – | – | – | – | – | – | – | – | – | – | – | – | peptide-specific CD8+ T lymphocytes detected by pentamer [2]: second minor CTL population
RLTSRVKALFSVLNY (listed as Homo sapiens) [SEQ ID NO. 8] | very low or no response | 2.6 | 1.2 | 0.9 | 1.1 | 1.1 | 0.8 | 2.1 | 0.9 | 0.8 | 0.6 | 1.1 | 7.1 | 0.8 | 4.8 | 6.3 | 4.2 | 1.3 | – | very low or no response | Specific clones (CD4+ T-cell clones; [22]): 3
